# Test results reported in patent US20230321237A1, “REGULATORY T CELL EPITOPES” (EPIVAX, INC., priority 2020, published 2023).
# Legend:
# [1] = test system: CD4 T cells in donor PBMC stimulated with Tetanus Toxoid; format: cell-based, human
# [2] = test system: Class II HLA alleles HLA-DRB1*0101, *0301, *0401, *0701, *0801, *0901, *1101, *1301, *1501; test: HLA Binding Assay with soluble HLA molecules (competition with labeled control peptide); set-up: species or system human; conditions: FIG. 18
# Protocol: HLA Binding Assay. Binding activity was analyzed at EpiVax (Providence, Rhode Island). The binding assay used (Steere A C et al., (2006), J Exp Med, […]:961-73) yielded an indirect measure of peptide-MHC affinity. Soluble HLA molecules were loaded onto a 96-well plate with the unlabeled experimental Tregitopes and labeled control peptide. Once the binding mixture reached steady equilibrium (at 24 hours), the HLA-Tregitope complexes were captured on an ELISA plate coated with anti-human DR antibody and detected with a Europium-linked probe for the label (PerkinElmer, Waltham, MA). Time-resolved fluorescence measuring bound labeled control peptide is assessed by a SpectraMax® M5 unit (Spectramax, Radnor, PA). Binding of experimental Tregitopes was expressed as the percent inhibition of the labeled control peptide ([…]). The percent inhibition values for each experimental Tregitope (across a range of molar concentrations) were used to calculate the concentration at which it inhibits 50% of the labeled control […] specific binding, i.e. the Tregitope's IC50.
# Selected experimental Tregitopes were solvated in DMSO. The diluted Tregitopes were then mixed with binding reagents in aqueous buffering solution, yielding a range of final concentrations from 100,000 nM down to 100 nM. […]
# [3] = target: T1, Recombinant human cathepsin B (Homo sapiens, UniProt P07858); test: Cathepsin B cleavage of the Val-Cit site; format: biochemical; conditions: 0.01 ug rhCathepsin B, 10 uM peptide substrate, RT 15 min, mass spec
# T1 construct: purchased R&D Systems 953-CY
# Protocol: Recombinant human cathepsin B (catalog 953-CY of R&D Systems™) can be used to evaluate the cleavage of the Val-Cit site engineered into the Tregitope peptide. The activity assay protocol can be used according to the R&D Systems™'s recommendations with final assay conditions of 0.01 ug rhCathepsin B and 10 uM of peptide substrate. After incubation of Cathepsin B with purified peptides (at RT for 15 min). The peptide can be evaluated by mass spec using the Qstar XL Pro™.
# [4] = test system: PBMCs from lupus patients; conditions: cited from earlier work
# [5] = test system: soluble HLA class II molecules (human DR molecules); conditions: cited from earlier work
# [6] = test system: CD4+ effector memory T cells in PBMC; format: cell-based, human
# [7] = CRIM-negative infantile Pompe disease patients; cited from earlier work
substance,measurement,setting,value
AAALVSLATAALLGHI [SEQ ID NO: 3],effect on CD4 proliferation,[1],little effect
AHGVFLLNSNAMDVVLQ (listed as Homo sapiens) [SEQ ID NO: 5],ratio of T regulatory cells to T effector cells,[1],good ratios
"ILTIHFTGHSFIYGK (listed as Homo sapiens) [SEQ ID NO: 74, known Tregitope used as positive control in the TTBSA, reference compound]",inhibition of CD4 T cell proliferation (CFSE low),[1],successfully inhibit
same,proliferation of regulatory T cells,[1],increased proliferation
KDILTLRLDVMMETE (listed as Homo sapiens) [SEQ ID NO: 4],effect on CD4 proliferation,[1],little effect
same,initial HLA binding results compared with prediction,[2],high false negative
PEG12,cleavage of the Val-Cit site by Cathepsin B,[3],successful cleavage
PRELSGSSPVLEETH (listed as Homo sapiens) [SEQ ID NO: 7],Tregitope suppressive activity,[1],demonstrated Tregitope suppressive activity
same,effect on CD4 proliferation,[1],little effect
same,inhibition of CD4 T cell proliferation (CFSE low),[1],little effect
RIHMVYSKRSGKPRGYAFIEY [peptide 131-151],randomly selected lupus patients whose PBMCs contain T cells that proliferate in response to the peptide,[4],40%
same,binding to human DR molecules,[5],binds to a large panel of human DR molecules
SHRLLAVCALVSLATAA (listed as Homo sapiens) [SEQ ID NO: 1],ratio of T regulatory cells to T effector cells,[1],best ratios
same,suppression of activated effector CD4+ T cells (CD4+/CD25hi/FoxP3int) reacting to Tetanus Toxoid,[6],Suppressed
Tetanus Toxoid: proliferation stimulant (Astarte Biologics) in the TTBSA [reference compound],CD4 proliferation caused by the stimulant,[1],caused CD4 proliferation
same,activated (CD25 high) CD4 T cells also proliferating (CFSE low),[6],approximately 90%
rhGAA: recombinant human acid alpha-glucosidase for enzyme replacement therapy,antibody titers reactive to administered rhGAA,[7],high antibody titers
